Biological target: Transient receptor potential cation channel subfamily M member 8 (Homo sapiens, UniProt Q7Z2W7)
Experiment: The agonisation or antagonisation of the receptor can be quantified by means of a Ca2+-sensitive dye (e.g. FURA, Fluo-4, etc.). Agonists on their own bring about an increase in the Ca2+-signal; antagonists in the presence of, for example, menthol bring about a reduction in the Ca2+-signal (in each case detected by means of the Fluo-4 dye, which due to the Ca2+ has other fluorescent properties).To begin with, in a manner known per se, in cell culture flasks a fresh culture of transformed HEK cells is prepared. The HEK293-TRPM8 test cells are removed using trypsin from the cell culture flasks and 40 000 cells/well are sown with 100 μl medium in 96-well plates (Greiner #655948 Poly-D-lysine coated). In order to induce the TRPM8 receptor the growth medium tetracycline is mixed in (DMEM/HG, 10% FCS tetracycline-free, 4 mM L-glutamine, 15 μg/ml blasticidin, 100 μg/ml hygromycin B, 1 μg/ml tetracycline). The next day the cells are charged with Fluo-4Am dye and the test is performed. The procedure is as follows: Addition of 100 μl/well of dye solution Ca-4 Kit (RB 141, Molecular Devices) per 100 μl of medium (DMEM/HG, 10% FCS tetracycline-free, 4 mM L-glutamine, 15 μg/ml blasticidin, 100 μg/ml hygromycin B, 1 μg/ml tetracycline). Incubation in the incubator for 30 minutes/37° C./5% CO2, 30 minutes/RT. […]

Transient receptor potential cation channel subfamily M member 8, sequence (Q7Z2W7 whole entry): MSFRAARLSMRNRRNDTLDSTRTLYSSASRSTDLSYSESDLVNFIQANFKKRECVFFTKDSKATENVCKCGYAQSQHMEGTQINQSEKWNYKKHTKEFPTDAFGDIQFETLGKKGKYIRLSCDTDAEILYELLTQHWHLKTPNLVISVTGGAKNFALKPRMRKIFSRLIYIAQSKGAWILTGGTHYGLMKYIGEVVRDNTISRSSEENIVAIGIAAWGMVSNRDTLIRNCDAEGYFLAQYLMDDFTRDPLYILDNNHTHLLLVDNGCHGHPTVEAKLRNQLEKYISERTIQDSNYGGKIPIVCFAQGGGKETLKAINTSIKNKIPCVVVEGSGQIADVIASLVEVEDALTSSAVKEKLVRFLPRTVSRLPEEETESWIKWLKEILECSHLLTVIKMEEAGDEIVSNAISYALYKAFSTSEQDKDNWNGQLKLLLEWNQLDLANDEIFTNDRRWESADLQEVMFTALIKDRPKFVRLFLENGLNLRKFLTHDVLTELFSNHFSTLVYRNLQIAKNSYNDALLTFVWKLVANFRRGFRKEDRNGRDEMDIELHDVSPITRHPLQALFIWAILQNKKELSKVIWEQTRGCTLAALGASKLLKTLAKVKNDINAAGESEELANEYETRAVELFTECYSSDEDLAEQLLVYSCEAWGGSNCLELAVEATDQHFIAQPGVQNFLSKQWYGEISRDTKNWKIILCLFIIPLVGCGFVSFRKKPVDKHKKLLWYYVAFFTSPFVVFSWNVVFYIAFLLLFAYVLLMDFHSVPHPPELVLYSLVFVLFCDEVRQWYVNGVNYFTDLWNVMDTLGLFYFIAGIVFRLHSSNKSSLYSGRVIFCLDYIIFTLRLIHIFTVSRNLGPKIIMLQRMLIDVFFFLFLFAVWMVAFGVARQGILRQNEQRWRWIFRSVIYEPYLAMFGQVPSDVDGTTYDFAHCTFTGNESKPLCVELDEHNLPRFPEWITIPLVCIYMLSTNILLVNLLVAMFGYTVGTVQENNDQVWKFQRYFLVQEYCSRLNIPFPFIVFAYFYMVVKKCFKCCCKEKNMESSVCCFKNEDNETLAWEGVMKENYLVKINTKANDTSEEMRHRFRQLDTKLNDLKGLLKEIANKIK

Row | EC50 | SMILES
1 | 3200 nM | COc1cnc(-c2ccccn2)nc1OC(C)C
2 | 500 nM | COc1cnc(-c2ccccn2)nc1NC(C)C(C)C (configuration not stated)

Reference: ChEMBL document CHEMBL5727593, “Use of physiological cooling active ingredients, and agents containing such active ingredients” (2020)
